From the supplement of paper PMC11208160

Experiment: recombinant barcode read abundance after kanamycin selection (control-corrected) (log10(CPM+1)); higher = more efficient recombination; sequences stand for … in AGTGCAGAGAAAATCGGCCAGTTTTCTCTGCCTGCAGTCCGCATGCCGT…ATTTATGCAGCGGACTGCCTTTCTCCCAAAGTGATAAACCGGACAGTATCATGGACCGGTTTTCCCGGTAATCCGTATTTGCAAGGTTGGTTTCACT; site = the 11-nt target
Summary of the method: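 Targets and IS621 bridge RNA target-binding loops were paired in oligos, each with a promoter, a barcode and the J23119-driven first 104 bridge RNA bases. A vector carrying the remaining 73 bp and a T7-inducible recombinase received these by Gibson cloning, and the pool was co-electroporated into E. coli with a donor plasmid. Duplicate plates contained chloramphenicol/ampicillin LB agar (control) or chloramphenicol/ampicillin/kanamycin with 0.1 mM IPTG. Recombination efficiency comes from averaged, control-corrected counts per million of recombinant-junction barcodes, reported as log10(CPM+1).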

“GTCGCCCTTTGGGTTCTAACCTGTTGCTAAG [GTCGCCCCTTA_LTGcore_TT_RTGcore_CT] (site GTCGCCCCTTA) (LTG core: TT, RTG core: CT)” and “TAAGAATAATGGGTTCTAACCTGTTGCCTAG [TAAGAATCTAG_LTGcore_AA_RTGcore_CT] (site TAAGAATCTAG) (LTG core: AA, RTG core: CT)” are within 0.2 log units of each other in “recombinant barcode read abundance (log10)” value: 0.137 for the first, 0.232 for the second.

Going from “TAAGAATATTGGGTTCTAACCTGTTGCCTAG [TAAGAATCTAG_LTGcore_AT_RTGcore_CT] (site TAAGAATCTAG) (LTG core: AT, RTG core: CT)” to “TAAGAATCATGGGTTCTAACCTGTTGCCTTG [TAAGAATCTAG_LTGcore_CA_RTGcore_CA] (site TAAGAATCTAG) (LTG core: CA, RTG core: CA)”, the “recombinant barcode read abundance (log10)” value rises from 0.124 to 1.03.

Going from “TAAGAATCGTGGGTTCTAACCTGTTGCCTCG [TAAGAATCTAG_LTGcore_CG_RTGcore_CG] (site TAAGAATCTAG) (LTG core: CG, RTG core: CG)” to “TAAGAATCTTGGGTTCTAACCTGTTGCCTAG [TAAGAATCTAG_LTGcore_CT_RTGcore_CT] (site TAAGAATCTAG) (LTG core: CT, RTG core: CT)”, the “recombinant barcode read abundance (log10)” value rises from 0.0781 to 1.3.

“TAAGAATCTTGGGTTCTAACCTGTTGCCTAT [TAAGAATCTAG_LTGcore_CT_RTGcore_AT] (site TAAGAATCTAG) (LTG core: CT, RTG core: AT)” and “TAAGAATCTTGGGTTCTAACCTGTTGCCTTA [TAAGAATCTAG_LTGcore_CT_RTGcore_TA] (site TAAGAATCTAG) (LTG core: CT, RTG core: TA)” are within 0.2 log units of each other in “recombinant barcode read abundance (log10)” value: 0.0438 for the first, 0.138 for the second.

“TAAGAATCTTGGGTTCTAACCTGTTGCCTTC [TAAGAATCTAG_LTGcore_CT_RTGcore_GA] (site TAAGAATCTAG) (LTG core: CT, RTG core: GA)” and “TAAGAATGATGGGTTCTAACCTGTTGCCTTC [TAAGAATCTAG_LTGcore_GA_RTGcore_GA] (site TAAGAATCTAG) (LTG core: GA, RTG core: GA)” are within 0.2 log units of each other in “recombinant barcode read abundance (log10)” value: 0.243 for the first, 0.176 for the second.

“TAAGAATTGTGGGTTCTAACCTGTTGCCTAG [TAAGAATCTAG_LTGcore_TG_RTGcore_CT] (site TAAGAATCTAG) (LTG core: TG, RTG core: CT)” and “TAAGAATTTTGGGTTCTAACCTGTTGCCTAA [TAAGAATCTAG_LTGcore_TT_RTGcore_TT] (site TAAGAATCTAG) (LTG core: TT, RTG core: TT)” are within 0.2 log units of each other in “recombinant barcode read abundance (log10)” value: 0.153 for the first, 0.156 for the second.

First: TAGAGGGATTGGGTTCTAACCTGTTGCGGAT [TAGAGGGCTCC_LTGcore_AT_RTGcore_AT] (site TAGAGGGCTCC) (LTG core: AT, RTG core: AT)
Second: TAGAGGGCCTGGGTTCTAACCTGTTGCGGAG [TAGAGGGCTCC_LTGcore_CC_RTGcore_CT] (site TAGAGGGCTCC) (LTG core: CC, RTG core: CT)
The “recombinant barcode read abundance (log10)” value of the first is lower: 0.237 for the first, 2.4 for the second.

Going from “TAGAGGGCTTGGGTTCTAACCTGTTGCGGAT [TAGAGGGCTCC_LTGcore_CT_RTGcore_AT] (site TAGAGGGCTCC) (LTG core: CT, RTG core: AT)” to “TAGAGGGCTTGGGTTCTAACCTGTTGCGGCA [TAGAGGGCTCC_LTGcore_CT_RTGcore_TG] (site TAGAGGGCTCC) (LTG core: CT, RTG core: TG)”, the “recombinant barcode read abundance (log10)” value rises from 0.779 to 1.66.

“TAGAGGGGCTGGGTTCTAACCTGTTGCGGGC [TAGAGGGCTCC_LTGcore_GC_RTGcore_GC] (site TAGAGGGCTCC) (LTG core: GC, RTG core: GC)” and “TAGAGGGGTTGGGTTCTAACCTGTTGCGGAC [TAGAGGGCTCC_LTGcore_GT_RTGcore_GT] (site TAGAGGGCTCC) (LTG core: GT, RTG core: GT)” are within 0.2 log units of each other in “recombinant barcode read abundance (log10)” value: 0.0588 for the first, 0.189 for the second.

Compared with “TAGAGGGTATGGGTTCTAACCTGTTGCGGAG [TAGAGGGCTCC_LTGcore_TA_RTGcore_CT] (site TAGAGGGCTCC) (LTG core: TA, RTG core: CT)”, “TAGAGGGTATGGGTTCTAACCTGTTGCGGTA [TAGAGGGCTCC_LTGcore_TA_RTGcore_TA] (site TAGAGGGCTCC) (LTG core: TA, RTG core: TA)” is higher in “recombinant barcode read abundance (log10)” value: 0.204 for the first, 0.481 for the second.

“TCGCGACACTGGGTTCTAACCTGTTGCCGGT [TCGCGACCTCG_LTGcore_AC_RTGcore_AC] (site TCGCGACCTCG) (LTG core: AC, RTG core: AC)” and “TCGCGACAGTGGGTTCTAACCTGTTGCCGCT [TCGCGACCTCG_LTGcore_AG_RTGcore_AG] (site TCGCGACCTCG) (LTG core: AG, RTG core: AG)” are within 0.2 log units of each other in “recombinant barcode read abundance (log10)” value: 0.102 for the first, 0.128 for the second.

“TCGCGACATTGGGTTCTAACCTGTTGCCGAG [TCGCGACCTCG_LTGcore_AT_RTGcore_CT] (site TCGCGACCTCG) (LTG core: AT, RTG core: CT)” and “TCGCGACCATGGGTTCTAACCTGTTGCCGTG [TCGCGACCTCG_LTGcore_CA_RTGcore_CA] (site TCGCGACCTCG) (LTG core: CA, RTG core: CA)” are within 0.2 log units of each other in “recombinant barcode read abundance (log10)” value: 0.0137 for the first, 0.139 for the second.

Going from “TCGCGACCCTGGGTTCTAACCTGTTGCCGGG [TCGCGACCTCG_LTGcore_CC_RTGcore_CC] (site TCGCGACCTCG) (LTG core: CC, RTG core: CC)” to “TCGCGACCTTGGGTTCTAACCTGTTGCCGCC [TCGCGACCTCG_LTGcore_CT_RTGcore_GG] (site TCGCGACCTCG) (LTG core: CT, RTG core: GG)”, the “recombinant barcode read abundance (log10)” value falls from 0.353 to 0.0891.

Going from “TCGCGACCTTGGGTTCTAACCTGTTGCCGTT [TCGCGACCTCG_LTGcore_CT_RTGcore_AA] (site TCGCGACCTCG) (LTG core: CT, RTG core: AA)” to “TCGCGACGTTGGGTTCTAACCTGTTGCCGAG [TCGCGACCTCG_LTGcore_GT_RTGcore_CT] (site TCGCGACCTCG) (LTG core: GT, RTG core: CT)”, the “recombinant barcode read abundance (log10)” value rises from 0.0373 to 0.391.

“TCTACCCACTGGGTTCTAACCTGTTGCTGGT [TCTACCCCTCA_LTGcore_AC_RTGcore_AC] (site TCTACCCCTCA) (LTG core: AC, RTG core: AC)” and “TCTACCCATTGGGTTCTAACCTGTTGCTGAT [TCTACCCCTCA_LTGcore_AT_RTGcore_AT] (site TCTACCCCTCA) (LTG core: AT, RTG core: AT)” are within 0.2 log units of each other in “recombinant barcode read abundance (log10)” value: 0.045 for the first, 0.00785 for the second.

First: TCTACCCCCTGGGTTCTAACCTGTTGCTGGG [TCTACCCCTCA_LTGcore_CC_RTGcore_CC] (site TCTACCCCTCA) (LTG core: CC, RTG core: CC)
Second: TCTACCCCTTGGGTTCTAACCTGTTGCTGAA [TCTACCCCTCA_LTGcore_CT_RTGcore_TT] (site TCTACCCCTCA) (LTG core: CT, RTG core: TT)
The “recombinant barcode read abundance (log10)” value of the first is lower: 0.0201 for the first, 0.241 for the second.

“TCTACCCCTTGGGTTCTAACCTGTTGCTGGG [TCTACCCCTCA_LTGcore_CT_RTGcore_CC] (site TCTACCCCTCA) (LTG core: CT, RTG core: CC)” and “TCTACCCCTTGGGTTCTAACCTGTTGCTGTG [TCTACCCCTCA_LTGcore_CT_RTGcore_CA] (site TCTACCCCTCA) (LTG core: CT, RTG core: CA)” are within 0.2 log units of each other in “recombinant barcode read abundance (log10)” value: 0.28 for the first, 0.182 for the second.
